Blank lines part the entries; values can stand above or below the molecule they belong to. Calls of active or inactive are those of the source.
Legend:
[1] = target: Neuropeptide Y receptor type 2 (Homo sapiens, UniProt P49146); assay: IC50 for human NPY-Y2 blockade – cell-based, counter-screen for NPY-Y1 antagonist project, dose response (AID 1278); assay type: functional
[2] = target: Neuropeptide Y receptor type 1 (Homo sapiens, UniProt P25929); assay: IC50 of human NPY-Y1 blockers – cell-based, dose response (AID 1277); assay type: functional
[3] = target: T1, Short transient receptor potential channel 4 (Mus musculus, UniProt Q9QUQ5); assay: calcium entry via TRPC4 opening agents – cell-based, HEK293 TRPC4/mu-opioid, Fluo-4 calcium, dose response (AID 434937); assay type: functional
T1 sequence (Q9QUQ5 whole entry): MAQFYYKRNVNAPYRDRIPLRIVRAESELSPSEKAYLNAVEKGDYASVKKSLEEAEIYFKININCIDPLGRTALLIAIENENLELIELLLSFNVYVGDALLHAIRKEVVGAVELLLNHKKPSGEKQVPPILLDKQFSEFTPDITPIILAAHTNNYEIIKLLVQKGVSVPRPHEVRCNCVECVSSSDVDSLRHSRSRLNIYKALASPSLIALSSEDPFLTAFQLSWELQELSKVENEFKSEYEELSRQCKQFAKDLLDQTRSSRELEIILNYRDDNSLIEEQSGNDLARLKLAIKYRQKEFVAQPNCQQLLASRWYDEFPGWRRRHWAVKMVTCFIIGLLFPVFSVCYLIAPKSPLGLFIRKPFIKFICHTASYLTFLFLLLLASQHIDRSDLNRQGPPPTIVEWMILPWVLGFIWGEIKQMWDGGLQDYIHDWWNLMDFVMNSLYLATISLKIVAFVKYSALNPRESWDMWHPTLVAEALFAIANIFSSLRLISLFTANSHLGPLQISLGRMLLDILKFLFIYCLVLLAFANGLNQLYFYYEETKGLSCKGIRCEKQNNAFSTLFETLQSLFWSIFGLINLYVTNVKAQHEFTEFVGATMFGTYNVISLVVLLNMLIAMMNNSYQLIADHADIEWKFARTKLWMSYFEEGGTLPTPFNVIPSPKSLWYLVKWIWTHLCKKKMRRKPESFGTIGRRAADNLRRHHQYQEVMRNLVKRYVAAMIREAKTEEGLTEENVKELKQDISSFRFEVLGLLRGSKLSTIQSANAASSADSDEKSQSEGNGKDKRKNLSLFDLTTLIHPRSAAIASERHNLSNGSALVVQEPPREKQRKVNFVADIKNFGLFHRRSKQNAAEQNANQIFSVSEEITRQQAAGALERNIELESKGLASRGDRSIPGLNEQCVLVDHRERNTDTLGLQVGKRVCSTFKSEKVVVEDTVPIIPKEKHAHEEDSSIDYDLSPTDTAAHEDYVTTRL

Galanin receptor type 3 = Galanin receptor type 3 (Homo sapiens, UniProt O60755); assay: Fluorescence-based cell-based primary high throughput dose response assay to identify antagonists of the Galanin Receptor 3 (GalR3).; assay type: functional
Galanin receptor type 3, sequence (O60755 whole entry): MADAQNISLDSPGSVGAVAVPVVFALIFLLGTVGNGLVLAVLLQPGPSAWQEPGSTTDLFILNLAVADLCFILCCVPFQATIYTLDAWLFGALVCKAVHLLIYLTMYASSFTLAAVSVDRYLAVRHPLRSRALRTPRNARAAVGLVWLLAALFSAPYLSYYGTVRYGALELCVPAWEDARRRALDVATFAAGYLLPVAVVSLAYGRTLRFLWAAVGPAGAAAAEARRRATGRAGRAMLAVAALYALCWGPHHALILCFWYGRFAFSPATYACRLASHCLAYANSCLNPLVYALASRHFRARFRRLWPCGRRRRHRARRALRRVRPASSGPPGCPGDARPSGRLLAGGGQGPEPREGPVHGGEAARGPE

cells = assay type: functional, cell-based; conditions: HEK-CNG
[4] = target: Epstein-Barr nuclear antigen 1 (Epstein-Barr virus (strain B95-8) (HHV-4) (Human herpesvirus 4), UniProt P03211); assay: inhibition of EBV nuclear antigen 1 DNA binding – biochemical, fluorescence polarization, 1536-well, dose response (AID 2381); design: species or system human gammaherpesvirus 4;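 also: fluorescence polarization of a Cy5 DNA probe bound by EBNA-1 protein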
Epstein-Barr nuclear antigen 1, sequence (P03211 whole entry): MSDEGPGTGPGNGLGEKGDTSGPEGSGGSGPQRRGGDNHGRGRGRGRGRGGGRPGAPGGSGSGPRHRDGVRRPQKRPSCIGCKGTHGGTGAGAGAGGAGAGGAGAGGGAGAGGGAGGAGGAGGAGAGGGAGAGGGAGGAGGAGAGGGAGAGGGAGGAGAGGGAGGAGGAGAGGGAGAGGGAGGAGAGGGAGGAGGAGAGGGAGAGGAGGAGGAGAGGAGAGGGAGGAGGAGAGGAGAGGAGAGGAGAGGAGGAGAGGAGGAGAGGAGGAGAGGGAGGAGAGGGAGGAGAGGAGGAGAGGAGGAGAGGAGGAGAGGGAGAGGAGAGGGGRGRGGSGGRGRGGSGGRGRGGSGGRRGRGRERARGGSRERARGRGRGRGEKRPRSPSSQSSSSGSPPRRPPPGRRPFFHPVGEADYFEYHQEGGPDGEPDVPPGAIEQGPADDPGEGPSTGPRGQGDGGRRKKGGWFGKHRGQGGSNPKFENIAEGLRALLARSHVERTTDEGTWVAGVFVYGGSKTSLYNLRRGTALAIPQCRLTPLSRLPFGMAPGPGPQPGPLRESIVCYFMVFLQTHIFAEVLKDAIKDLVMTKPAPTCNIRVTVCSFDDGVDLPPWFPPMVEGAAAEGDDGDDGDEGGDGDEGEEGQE

[5] = target: Lytic switch protein BZLF1 (Epstein-Barr virus (strain B95-8) (HHV-4) (Human herpesvirus 4), UniProt P03206); assay: inhibition of BZLF1 ZTA DNA binding – biochemical, fluorescence polarization, Epstein-Barr virus, 1536-well, counter-screen for EBNA-1 inhibitor project, dose response (AID 2377); design: species or system human gammaherpesvirus 4;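 also: fluorescence polarization of Cy5-labelled ZRE DNA probe bound by purified Zta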
Lytic switch protein BZLF1, sequence (P03206 whole entry): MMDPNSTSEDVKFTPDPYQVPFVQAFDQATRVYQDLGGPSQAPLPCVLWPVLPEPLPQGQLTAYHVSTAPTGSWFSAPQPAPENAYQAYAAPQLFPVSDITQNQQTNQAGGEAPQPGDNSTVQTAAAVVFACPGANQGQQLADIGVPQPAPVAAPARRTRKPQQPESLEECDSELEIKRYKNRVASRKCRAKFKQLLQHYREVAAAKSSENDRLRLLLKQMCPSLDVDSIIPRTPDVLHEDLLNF

[6] = target: Transitional endoplasmic reticulum ATPase (Homo sapiens, UniProt P55072, C522A); assay: Luminescence counterscreen assay for p97 inhibitors: dose response biochemical high throughput screening assay to identify inhibitors of the C522A mutant p97 ATPase: synthesized compounds. [Related pubchem assays: 1481, 1517, 1551 ]
[7] = target: Transitional endoplasmic reticulum ATPase (Homo sapiens, UniProt P55072); assay: Luminescence dose response biochemical high throughput screening assay for inhibitors of the p97 ATPase: synthesized compounds. [Related pubchem assays: 1481, 1517 ]
Transitional endoplasmic reticulum ATPase (Homo sapiens, UniProt P55072), sequence (P55072 whole entry): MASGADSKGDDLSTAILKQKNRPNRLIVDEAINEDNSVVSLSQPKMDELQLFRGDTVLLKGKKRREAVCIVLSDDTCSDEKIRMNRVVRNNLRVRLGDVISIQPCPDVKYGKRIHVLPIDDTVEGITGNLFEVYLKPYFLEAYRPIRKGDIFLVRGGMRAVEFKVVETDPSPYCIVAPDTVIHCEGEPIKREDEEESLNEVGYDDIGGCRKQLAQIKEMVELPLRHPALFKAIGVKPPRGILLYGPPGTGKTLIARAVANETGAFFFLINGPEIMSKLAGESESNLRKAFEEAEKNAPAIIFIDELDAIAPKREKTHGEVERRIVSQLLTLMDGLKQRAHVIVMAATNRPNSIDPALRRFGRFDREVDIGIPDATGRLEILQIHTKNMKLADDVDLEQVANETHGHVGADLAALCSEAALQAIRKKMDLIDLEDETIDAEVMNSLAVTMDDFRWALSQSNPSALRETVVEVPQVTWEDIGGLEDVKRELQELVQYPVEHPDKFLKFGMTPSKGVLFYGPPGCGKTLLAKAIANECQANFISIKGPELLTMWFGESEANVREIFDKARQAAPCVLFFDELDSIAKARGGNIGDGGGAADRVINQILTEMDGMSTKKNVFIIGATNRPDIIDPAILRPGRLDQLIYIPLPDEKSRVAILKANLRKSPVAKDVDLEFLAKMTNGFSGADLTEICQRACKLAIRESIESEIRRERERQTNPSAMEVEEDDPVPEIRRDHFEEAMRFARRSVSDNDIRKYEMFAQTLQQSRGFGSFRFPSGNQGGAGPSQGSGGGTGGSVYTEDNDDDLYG

[8] = target: Peroxisome proliferator-activated receptor gamma/Nuclear receptor corepressor 2 (Homo sapiens, UniProt P37231+Q9Y618); assay: Counterscreen for NR2E3 inverse agonists: TR-FRET-based biochemical high throughput dose response assay to identify inverse agonists of the interaction between peroxisome proliferator-activated receptor gamma (PPARg) and nuclear receptor co-repressor 2 (NCOR2).; assay type: functional
Peroxisome proliferator-activated receptor gamma/Nuclear receptor corepressor 2, sequence (P37231 whole entry): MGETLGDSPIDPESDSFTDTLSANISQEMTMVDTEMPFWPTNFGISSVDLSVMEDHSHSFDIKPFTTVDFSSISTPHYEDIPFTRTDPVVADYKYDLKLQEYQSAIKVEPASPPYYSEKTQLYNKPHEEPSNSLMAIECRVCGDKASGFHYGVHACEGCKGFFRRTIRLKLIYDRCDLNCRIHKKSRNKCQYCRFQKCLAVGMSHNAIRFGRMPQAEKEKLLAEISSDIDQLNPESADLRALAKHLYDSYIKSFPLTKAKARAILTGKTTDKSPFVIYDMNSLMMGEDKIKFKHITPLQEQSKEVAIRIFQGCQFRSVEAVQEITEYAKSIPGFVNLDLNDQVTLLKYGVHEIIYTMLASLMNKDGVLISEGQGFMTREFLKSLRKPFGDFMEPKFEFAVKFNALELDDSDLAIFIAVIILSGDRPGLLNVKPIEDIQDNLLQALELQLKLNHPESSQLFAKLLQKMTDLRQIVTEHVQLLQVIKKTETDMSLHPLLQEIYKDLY
Peroxisome proliferator-activated receptor gamma/Nuclear receptor corepressor 2, sequence (Q9Y618 whole entry): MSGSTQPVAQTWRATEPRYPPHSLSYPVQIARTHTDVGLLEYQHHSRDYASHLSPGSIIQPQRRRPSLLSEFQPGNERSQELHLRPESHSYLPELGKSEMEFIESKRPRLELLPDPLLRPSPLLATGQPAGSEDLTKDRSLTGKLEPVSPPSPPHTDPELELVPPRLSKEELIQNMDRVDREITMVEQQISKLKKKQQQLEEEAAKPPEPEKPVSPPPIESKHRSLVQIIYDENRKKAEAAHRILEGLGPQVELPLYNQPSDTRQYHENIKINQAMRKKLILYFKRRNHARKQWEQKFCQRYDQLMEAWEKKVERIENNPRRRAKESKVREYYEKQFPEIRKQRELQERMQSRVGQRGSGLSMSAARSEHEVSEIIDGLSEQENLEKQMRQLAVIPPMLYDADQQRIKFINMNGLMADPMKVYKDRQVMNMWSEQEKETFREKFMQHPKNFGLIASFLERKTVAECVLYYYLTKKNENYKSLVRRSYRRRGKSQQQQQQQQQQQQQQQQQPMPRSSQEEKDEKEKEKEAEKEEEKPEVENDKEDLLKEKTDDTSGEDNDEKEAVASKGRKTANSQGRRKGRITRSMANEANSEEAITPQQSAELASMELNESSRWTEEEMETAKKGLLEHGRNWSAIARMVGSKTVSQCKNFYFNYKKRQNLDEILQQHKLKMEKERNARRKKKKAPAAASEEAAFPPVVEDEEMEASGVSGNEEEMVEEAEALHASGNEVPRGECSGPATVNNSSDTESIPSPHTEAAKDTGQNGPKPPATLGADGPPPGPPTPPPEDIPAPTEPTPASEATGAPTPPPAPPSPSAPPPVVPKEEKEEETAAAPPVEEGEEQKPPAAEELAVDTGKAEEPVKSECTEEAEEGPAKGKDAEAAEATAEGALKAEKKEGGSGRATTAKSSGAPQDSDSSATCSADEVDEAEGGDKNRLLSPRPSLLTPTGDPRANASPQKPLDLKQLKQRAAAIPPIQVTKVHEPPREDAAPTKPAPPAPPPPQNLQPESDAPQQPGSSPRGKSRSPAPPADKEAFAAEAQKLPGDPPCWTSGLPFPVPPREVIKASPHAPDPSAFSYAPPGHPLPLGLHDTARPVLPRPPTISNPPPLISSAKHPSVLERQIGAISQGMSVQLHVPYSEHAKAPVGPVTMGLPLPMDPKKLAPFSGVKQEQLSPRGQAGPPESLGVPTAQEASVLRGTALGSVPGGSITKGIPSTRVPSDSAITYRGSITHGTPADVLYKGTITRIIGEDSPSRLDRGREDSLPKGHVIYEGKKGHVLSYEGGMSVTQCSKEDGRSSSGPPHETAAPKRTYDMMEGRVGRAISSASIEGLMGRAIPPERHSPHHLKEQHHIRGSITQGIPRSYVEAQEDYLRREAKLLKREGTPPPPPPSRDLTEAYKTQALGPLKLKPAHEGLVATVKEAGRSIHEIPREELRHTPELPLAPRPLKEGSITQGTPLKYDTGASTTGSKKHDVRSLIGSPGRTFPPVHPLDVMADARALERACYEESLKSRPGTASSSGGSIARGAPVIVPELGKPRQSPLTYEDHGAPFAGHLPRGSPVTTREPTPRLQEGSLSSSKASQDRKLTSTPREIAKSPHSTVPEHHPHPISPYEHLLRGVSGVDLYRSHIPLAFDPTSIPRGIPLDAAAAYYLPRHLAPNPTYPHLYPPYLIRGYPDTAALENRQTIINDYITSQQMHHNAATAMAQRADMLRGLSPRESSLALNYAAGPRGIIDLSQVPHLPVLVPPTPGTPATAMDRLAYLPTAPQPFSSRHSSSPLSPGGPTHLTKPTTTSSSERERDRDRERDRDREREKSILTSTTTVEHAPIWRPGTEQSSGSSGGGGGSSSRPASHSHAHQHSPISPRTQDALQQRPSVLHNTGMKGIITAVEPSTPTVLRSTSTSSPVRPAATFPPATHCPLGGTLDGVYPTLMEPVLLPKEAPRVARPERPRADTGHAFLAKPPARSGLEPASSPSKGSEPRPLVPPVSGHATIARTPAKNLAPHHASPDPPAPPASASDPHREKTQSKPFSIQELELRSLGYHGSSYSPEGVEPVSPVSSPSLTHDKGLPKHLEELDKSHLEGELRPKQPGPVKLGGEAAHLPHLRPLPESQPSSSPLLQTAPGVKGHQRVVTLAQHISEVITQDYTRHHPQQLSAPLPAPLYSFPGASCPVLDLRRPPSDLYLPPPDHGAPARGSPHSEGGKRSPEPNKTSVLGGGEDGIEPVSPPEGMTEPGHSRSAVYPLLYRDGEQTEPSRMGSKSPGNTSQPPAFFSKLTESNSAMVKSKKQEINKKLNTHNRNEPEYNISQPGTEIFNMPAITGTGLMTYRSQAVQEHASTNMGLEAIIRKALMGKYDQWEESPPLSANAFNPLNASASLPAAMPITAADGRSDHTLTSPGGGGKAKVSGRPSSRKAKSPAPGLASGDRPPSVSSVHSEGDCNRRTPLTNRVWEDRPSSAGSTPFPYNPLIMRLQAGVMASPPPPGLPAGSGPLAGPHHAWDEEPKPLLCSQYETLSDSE

[9] = target: Photoreceptor-specific nuclear receptor (Homo sapiens, UniProt Q9Y5X4); assay: ligands suppressing NR2E3 nuclear receptor activity – biochemical, TR-FRET, dose response (AID 463256); assay type: functional
[10] = target: T2, RNA-binding protein pos-1 (Caenorhabditis elegans, UniProt G5EF15); assay: disruptors of C. elegans POS-1 RNA interaction – biochemical, fluorescence polarization, dose response (AID 1964);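 also: purified POS-1 fused to maltose binding protein made in E. coli; potency of compounds blocking POS-1 binding to fluorescent RNA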
T2 sequence (G5EF15 whole entry): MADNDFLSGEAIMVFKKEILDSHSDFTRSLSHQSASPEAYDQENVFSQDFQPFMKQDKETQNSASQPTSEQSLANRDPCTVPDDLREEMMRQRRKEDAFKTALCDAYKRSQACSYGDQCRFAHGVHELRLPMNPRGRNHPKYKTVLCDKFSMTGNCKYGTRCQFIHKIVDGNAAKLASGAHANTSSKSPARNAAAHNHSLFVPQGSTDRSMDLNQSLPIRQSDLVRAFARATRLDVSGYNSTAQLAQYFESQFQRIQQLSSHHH

[11] = antibacterial activity against E. coli NEB5alpha – luminescence, counter-screen for MEX-5/POS-1 RNA-binding inhibitor project, dose response (AID 1959); assay type: functional
[12] = target: Luciferin 4-monooxygenase (Photinus pyralis, UniProt P08659); assay: inhibition of purified Photinus pyralis luciferase – biochemical, luminescence, dose response (AID 1891)
[13] = Luminescence Cell-Based Dose Confirmation HTS to Identify Inhibitors of Platelet Dense Granule Release. [Related pubchem assays: 1663 (Primary HTS), 1678 (Summary of Project)]; assay type: functional
[14] = mitochondrial function rescue without frataxin homolog – Friedreich's ataxia, plus single-dose screen, dose response (AID 1465); assay type: functional;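 also: yeast depleted of Yfh1p frataxin homolog grown on glycerol needing respiration; WST-1 tetrazolium dye reduction as measure of cellular dehydrogenase metabolic activity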
[15] = target: Disintegrin and metalloproteinase domain-containing protein 17 (Homo sapiens, UniProt P78536); assay: exosite inhibitors of ADAM17, dose response, biochemical (AID 743260)
[16] = inhibition of ADAM10 peptide cleavage – biochemical, FRET peptide substrate, recombinant human ADAM10, selectivity assay for ADAM17 exosite inhibitor project, dose response (AID 743259);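 also: ADAM10 enzyme cleaving a FRET peptide substrate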

- IC50 [6]: > 50 µM (not active)
- IC50 [7]: > 50 µM (not active)
SMILES: CCOC(=O)/C(C#N)=C/c1ccc([N+](=O)[O-])cc1

- IC50 [8]: > 4.43 µM (active)
- IC50 [9]: > 4.43 µM (active)
SMILES: CCCS(=O)(=O)N1CCC(C(=O)NCCCN(CC)c2cccc(C)c2)CC1

More lines, now with the values behind:

SMILES: CC(=O)OCC[N+](C)(C)C
- IC50 [1]: > 35 µM (not active)
- IC50 [2]: > 35 µM (not active)
- EC50 [3]: 0.0667 µM (active)
- IC50 (Galanin receptor type 3): 1.66 µM (active)
- EC50 (cells): > 29.9 µM (inactive)

SMILES: COC(=O)c1ccc2nc(NC(=O)CCS(=O)(=O)c3ccccc3)sc2c1
- IC50 [4]: 39 µM (not active)
- IC50 [5]: > 111 µM (not active)

SMILES: CCOc1ccc(N/N=C2/C(=O)Nn3c2nc(C)cc3=O)cc1
- EC50 [10]: 213 µM (active)
- EC50 [11]: 16.2 µM (active)
- EC50 [12]: 0.535 µM (active)
- EC50 [13]: 9.37 µM (active)
- EC50 [14]: > 100 µM (active)
- IC50 [15]: > 69.5 µM (inactive)
- IC50 [16]: 24.7 µM (inactive)

Source: ChEMBL document CHEMBL1201862, “PubChem BioAssay data set” (2004)
